Test results from patent US20110288036A1, “Methods for Treating or Preventing Vascular Graft Failure” (priority 2010, published 2011).

Legend:
[1] = molecular target: T1, MKK4 (Mus musculus, UniProt P47809); experiment: MKK4 radiometric kinase assay; assay type: biochemical; conditions: peptide 100 μM
T1 construct: purchased Millipore (KinaseProfiler service)
Description: (§1) A commercial radiometric assay service was used to test the specificity and potency of MMI-0100 ([…]; SEQ ID NO: 1) by measuring its half maximal inhibitory concentrations (IC50). This quantitative assay measures how much MK2 inhibitor (MMI-0100; […] (SEQ ID NO: 1)) is needed to inhibit 50% of a given biological process or component of a process (i.e., an enzyme, cell, or cell receptor). Specifically, in these assays, a positively charged substrate is phosphorylated with a radiolabeled phosphate group from an ATP if the kinase is not inhibited by an inhibitor peptide. The positively charged substrate then is attracted to a negatively charged filter membrane, quantified with a scintillation counter, and compared to a 100% activity control. ATP concentrations within 15 μM of the apparent Km for ATP were chosen since an ATP concentration near the Km may allow for the kinases to have the same relative amount of phosphorylation activity. The individual conditions for each radiometric assay are as follows.
The reaction was initiated by the addition of the MgATP. After incubation for 40 minutes at room temperature, 5 μl of the incubation mix was used to initiate the JNK radiometric assay described above.
IC50 values for inhibitor peptides were determined using Millipore's IC50 Profiler Express service. The IC50 value was estimated from a 10-point curve of one-half log dilutions. […]

[2] = system: JNK; experiment: JNK radiometric kinase assay; assay type: biochemical; conditions: peptide 100 μM
Description: as §1, with “The individual conditions for each radiometric assay are as follows.” left out
For the JNK (c-Jun N-terminal Kinase) radiometric assay, 5-10 mU of JNK was incubated with 50 mM Tris pH 7.5, 0.1 mM EGTA, 0.1% b-mercaptoethanol, 3 μM ATF2 (a substrate for JNK), 10 mM MgAcetate, and 10 μM of [y-^33P-ATP] in the final reaction volume of 25 μl. […] The washed P30 filtermat was dried and its radioactivity was measured by scintillation counter.
(§2) IC50 values for inhibitor peptides were determined using Millipore's IC50 Profiler Express service. […]

[3] = molecular target: T2, PRAK (Homo sapiens, UniProt Q8IW41); experiment: PRAK radiometric kinase assay; assay type: biochemical; conditions: peptide 100 μM
T2 construct: purchased Millipore (KinaseProfiler service)
T2 sequence (Q8IW41 whole entry, species assumed): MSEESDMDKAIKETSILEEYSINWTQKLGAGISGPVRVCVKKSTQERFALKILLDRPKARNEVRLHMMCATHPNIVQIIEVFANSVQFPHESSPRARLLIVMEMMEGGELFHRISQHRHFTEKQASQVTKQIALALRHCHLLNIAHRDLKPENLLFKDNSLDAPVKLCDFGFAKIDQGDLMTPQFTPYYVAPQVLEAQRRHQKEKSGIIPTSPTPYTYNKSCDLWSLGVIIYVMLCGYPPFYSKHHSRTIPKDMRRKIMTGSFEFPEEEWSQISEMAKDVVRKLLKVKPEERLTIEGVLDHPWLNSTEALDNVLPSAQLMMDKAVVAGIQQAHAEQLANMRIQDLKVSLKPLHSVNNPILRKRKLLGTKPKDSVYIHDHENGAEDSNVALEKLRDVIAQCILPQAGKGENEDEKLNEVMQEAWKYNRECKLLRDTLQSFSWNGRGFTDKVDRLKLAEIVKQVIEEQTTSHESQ
Description: as §1, with “follows. […]” for “follows.”
as §2

[4] = system: human smooth muscle cell (SMC); experiment: Phase contrast morphology, smooth muscle cells; assay type: cell-based; conditions: 24 hours treatment, vs control cells
Procedure: (§3) In order to determine the effect of pharmacological doses of MMI-0100 ([…]; SEQ ID NO: 1) on human endothelial cell (EC) and smooth muscle cell (SMC) proliferation, human EC and SMC cultures were treated with three concentrations (0.25 mM, 0.5 mM, and 1 mM) of MMI-0100 ([…] (SEQ ID NO: 1)) following pre-treatment with TNF-α.

[5] = system: human smooth muscle cell (SMC); experiment: MTS cell proliferation assay, smooth muscle cells; assay type: cell-based; conditions: pre-treatment 20 ng/ml TNF-α
Procedure: (§4) Primary human aortic endothelial cells (HAEC) and primary human aortic smooth muscle cells (HASMC) were obtained from Invitrogen; primary human coronary artery endothelial cells (HCAEC) were obtained from Lonza.
(§5) All cultures were maintained in 25 cm^2 polystyrene tissue culture flasks in a 37° C., 5% CO2/95% air environment, with cell culture media refreshed every other day. All cells were seeded at a density of 20,000˜30,000 cells/cm^2, as required by the specific experiment, and allowed to grow to 80-90% confluence before being harvested/passaged. Only cells from early passages (numbers 2-8) were utilized in experiments.
(§6) The CellTiter 96® AQueous Non-Radioactive Cell Proliferation Assay (Promega) was used to assess drug effects on cell proliferation according to the manufacturer's instructions. Briefly, HAECs and HASMCs from early passages were grown to 80-90% confluence in 25 cm^2 tissue culture flasks in a 37° C./5% CO2 incubator prior to harvest. 200 μl of each type of cell suspension (at 20,000 cells/cm^2) was seeded onto separate 96-well plates to yield an approximate 60% confluence per well. Cells were allowed to adhere to the plate surface overnight, followed by addition of 20 ng/ml of TNF-α to stimulate production of inflammatory agents. After a 4-6 hour incubation period, MMI-0100 peptide drug ([…]; SEQ ID NO: 1) was added and cells incubated for another 20-24 hours. Each well was then supplemented with 100 μl of fresh medium and 20 μl of CellTiter 96® AQueous One Solution Reagent and incubated for an additional 1.5-2 hours prior to measuring absorbance of each well at 490 nm with a SoftMax®-equipped plate reader.
as §3

[6] = Observation of toxicity, tissue erosion or necrosis
[7] = system: human endothelial cell (EC); experiment: MTS cell proliferation assay, endothelial cells; assay type: cell-based; conditions: pre-treatment 20 ng/ml TNF-α
Procedure: as §4, §5, §6, §3

[8] = system: mouse lung endothelial cells (MLEC); experiment: Murine endothelial cell apoptosis, annexin V flow cytometry; assay type: cell-based; conditions: 24 hours; any dose
Procedure: The apoptotic effect of MMI-0100 ([…]; SEQ ID NO: 1) on mouse lung endothelial cells (MLEC) was measured at 24 hours after MMI-0100 ([…]; SEQ ID NO: 1) treatment. MLEC were removed from the tissue culture plate by trypsin, and re-suspended at a concentration of 1.0×10^6 cells/ml. Apoptotic cells were detected by AlexaFluor® 488 annexin V/Dead Cell Apoptosis Kit (Invitrogen) using flow cytometry sorting analysis.

[9] = molecular target: T3, MEK1 (Homo sapiens, UniProt Q02750); experiment: MEK1 radiometric kinase assay; assay type: biochemical; conditions: peptide 100 μM
T3 construct: purchased Millipore (KinaseProfiler service)
Description: as §1
The reaction was initiated by adding the MgATP. After incubation for 40 minutes at room temperature, 5 μl of this incubation mix was used to initiate the MAPK2 radiometric assay whose reaction condition was the same as the condition for p38 MAPK assay described above.
as §2

T1 sequence (P47809 whole entry): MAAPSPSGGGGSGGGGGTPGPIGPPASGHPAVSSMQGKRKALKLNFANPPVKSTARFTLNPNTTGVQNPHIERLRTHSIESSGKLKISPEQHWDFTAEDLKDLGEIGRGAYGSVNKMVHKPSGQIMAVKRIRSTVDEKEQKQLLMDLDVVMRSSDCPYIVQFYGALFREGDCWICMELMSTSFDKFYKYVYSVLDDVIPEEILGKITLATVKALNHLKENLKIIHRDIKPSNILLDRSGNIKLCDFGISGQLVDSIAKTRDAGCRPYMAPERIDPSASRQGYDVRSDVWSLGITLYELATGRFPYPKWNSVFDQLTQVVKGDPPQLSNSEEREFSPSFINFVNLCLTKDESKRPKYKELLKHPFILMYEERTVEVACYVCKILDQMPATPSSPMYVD

## YARAAARQARAKALARQLGVAA [MMI-0100]
[1]
  Percent Activity, MKK4: 90%
[2]
  Percent Activity, JNK: 92%
[3]
  Percent Activity, PRAK: 100%
[4]
  morphological changes of SMC: no obvious morphological changes
[5]; 0.25 mM
  SMC proliferation vs TNF-α alone control: slightly increased cell proliferation
[5]; 0.5 mM
  increase in SMC proliferation vs TNF-α alone control: 12%
[5]; 1 mM
  increase in SMC proliferation vs TNF-α alone control: 7%
[6]
  evidence of toxicity, tissue erosion, or necrosis: did not show any evidence of toxicity, tissue erosion, or necrosis
[7]; 0.25 mM
  EC proliferation vs TNF-α alone control: slightly increased cell proliferation
[7]; 0.5 mM
  increase in EC proliferation vs TNF-α alone control: 30%
[7]; 1 mM
  increase in EC proliferation vs TNF-α alone control: 11%
[8]
  EC apoptosis: did not induce EC apoptosis at any dose
[9]
  Percent Activity, MEK1: 68%
